Measured values from patent US7727967B2, “Cyanooxime inhibitors of carbonyl reductase and methods of using said inhibitors in treatments involving anthracyclines” (Boise State University, priority 2006, dated 2010).

Key:
[1] = molecular target: T1, carbonyl reductase (Homo sapiens, UniProt P16152); conditions: cited from earlier work
T1 sequence (P16152 1-277): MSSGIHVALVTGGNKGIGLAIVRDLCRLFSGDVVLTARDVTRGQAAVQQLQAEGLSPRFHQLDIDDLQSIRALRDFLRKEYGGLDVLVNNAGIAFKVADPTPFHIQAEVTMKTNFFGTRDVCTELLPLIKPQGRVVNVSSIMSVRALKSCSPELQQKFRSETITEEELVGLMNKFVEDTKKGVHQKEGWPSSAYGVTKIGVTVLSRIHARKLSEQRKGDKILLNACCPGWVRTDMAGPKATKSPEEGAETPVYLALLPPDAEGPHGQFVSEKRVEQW

[2] = test system: A549 adenocarcinoma cells; conditions: coadministered with daunorubicin; cited from earlier work
[3] = molecular target: T1, carbonyl reductase; experiment: Inhibition of carbonyl reductase by arylcyanooximes (1/rate vs. 1/substrate, menadione and NADPH as varied substrates); type: biochemical; conditions: for Ki: uncompetitive against both coenzyme and carbonyl substrates, range over the six compounds, read-out: Kii (intercept inhibition constant)
Procedure: FIG. 6 describes inhibition patterns seen with inhibitors C1, C2, C3, C4, C5, and C6 wherein KII stands for the intercept inhibition constant.
Six arylcyanooximes (C1, C2, C3, C4, C5, and C6) were tested as possible inhibitors for carbonyl reductase. (See the syntheses described earlier in this disclosure). […] See FIGS. 5 A and B, portraying the 1/rate vs. 1/substrate concentration taken with C5, with menadione and NADPH as the varied substrates, respectively. […] Therefore, while compositions comprising C5 are preferred, compositions comprising C1, C2, C3, C4, and/or C6 are also included in embodiments of the invention and are also expected by the inventors to be beneficial in the methods of the invention.

SMILES | potency as inhibitor of human carbonyl reductase (in words) [1] | effect on cytotoxicity of daunorubicin [2] | melting point | inhibition pattern against the carbonyl substrate [3] | inhibition pattern against both coenzyme and carbonyl substrates [3] | Ki [3] | potency as inhibitor of carbonyl reductase (in words) [3] | inhibition pattern against NADPH ([3]; NADPH as varied substrate (FIG. 5B)) | inhibition pattern against menadione ([3]; menadione as varied substrate (FIG. 5A))
CNc1ncnc2c1c(-c1cccc(O)c1)cn2C(C)C [3-(7-isopropyl-4-(methylamino)-7H-pyrrolo[2,3-d]pyrimidin-5-yl)phenol] | potent inhibitor | enhance the cytotoxicity of daunorubicin | – | – | – | – | – | – | –
N#CC(=NO)c1ccc(F)cc1F [C1, oximino(2,4-difluorophenyl)acetonitrile] | – | – | 64 to 65 °C | uncompetitive inhibitors | uncompetitive inhibitors | 10.8 to 72 µM | – | – | –
N#CC(=NO)c1c(F)cccc1F [C2, oximino(2,6-difluorophenyl)acetonitrile] | – | – | 99 to 100 °C | uncompetitive inhibitors | uncompetitive inhibitors | 10.8 to 72 µM | – | – | –
N#CC(=NO)c1cc(F)ccc1F [C3, oximino(2,5-difluorophenyl)acetonitrile] | – | – | 64 to 67 °C | uncompetitive inhibitors | uncompetitive inhibitors | 10.8 to 72 µM | – | – | –
N#CC(=NO)c1c(F)cccc1Cl [C4, oximino(2-chloro-6-fluorophenyl)acetonitrile] | – | – | – | uncompetitive inhibitors | uncompetitive inhibitors | 10.8 to 72 µM | – | – | –
N#CC(=NO)c1ccc(Cl)cc1Cl [C5, oximino(2,4-dichlorophenyl)acetonitrile] | – | – | 151 °C | uncompetitive inhibitors | uncompetitive inhibitors | 10.8 to 72 µM | potent inhibitor | uncompetitive inhibitor | uncompetitive inhibitor
N#CC(=NO)c1c(Cl)cccc1Cl [C6, oximino(2,6-dichlorophenyl)acetonitrile] | – | – | 94 to 96 °C | uncompetitive inhibitors | uncompetitive inhibitors | 10.8 to 72 µM | – | – | –
